Columns and labels:
DGKα = DGKα (Homo sapiens, UniProt P23743); assay: DGKα biochemical assay (ADP-Glo); conditions: read-out: DGK α IC50
How it was run: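 ADP-Glo kinase assay using OAG/PS (1:2) lipid substrate, sonicated, in HEPES pH 7.0 buffer with MgCl2, CaCl2, DTT, BSA, Triton X-100. Enzyme preincubated with compound 30 min at RT; substrate with ATP (DGKα: 400 μM) added, 45 min RT. Luminescence read; % inhibition vs DMSO and no-enzyme controls.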

DGKζ = biological target: T1, DGKζ (Homo sapiens, UniProt Q13574); assay: DGKζ biochemical assay (ADP-Glo); conditions: read-out: DGK ζ IC50
T1 construct: purchased Carna 12-110
T1 sequence (Q13574 1-929 isoform Q13574-4): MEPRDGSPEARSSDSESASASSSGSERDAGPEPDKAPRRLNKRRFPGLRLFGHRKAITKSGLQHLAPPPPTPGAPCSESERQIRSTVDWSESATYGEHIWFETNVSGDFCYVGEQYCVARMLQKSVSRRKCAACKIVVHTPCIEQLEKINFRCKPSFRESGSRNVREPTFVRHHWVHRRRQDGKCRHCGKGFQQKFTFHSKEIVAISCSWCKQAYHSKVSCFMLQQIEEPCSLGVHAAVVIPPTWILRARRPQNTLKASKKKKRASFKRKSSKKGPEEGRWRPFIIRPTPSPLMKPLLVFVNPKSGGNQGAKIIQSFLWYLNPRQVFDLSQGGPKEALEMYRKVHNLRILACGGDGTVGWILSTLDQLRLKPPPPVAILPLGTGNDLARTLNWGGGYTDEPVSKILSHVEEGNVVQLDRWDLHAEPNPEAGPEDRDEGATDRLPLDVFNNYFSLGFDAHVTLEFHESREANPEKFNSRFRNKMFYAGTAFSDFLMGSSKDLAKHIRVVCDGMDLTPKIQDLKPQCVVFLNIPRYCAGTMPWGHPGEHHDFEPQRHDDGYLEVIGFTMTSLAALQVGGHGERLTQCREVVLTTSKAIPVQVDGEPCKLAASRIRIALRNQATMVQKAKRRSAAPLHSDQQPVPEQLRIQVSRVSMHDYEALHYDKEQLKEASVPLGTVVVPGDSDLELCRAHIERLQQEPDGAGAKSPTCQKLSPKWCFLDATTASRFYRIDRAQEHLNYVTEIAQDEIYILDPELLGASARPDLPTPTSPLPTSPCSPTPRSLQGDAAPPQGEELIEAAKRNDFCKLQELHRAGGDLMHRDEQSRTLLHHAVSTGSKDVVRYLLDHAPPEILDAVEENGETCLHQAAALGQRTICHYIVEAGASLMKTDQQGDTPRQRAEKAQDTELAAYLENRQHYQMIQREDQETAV

DGKα, sequence (P23743 whole entry): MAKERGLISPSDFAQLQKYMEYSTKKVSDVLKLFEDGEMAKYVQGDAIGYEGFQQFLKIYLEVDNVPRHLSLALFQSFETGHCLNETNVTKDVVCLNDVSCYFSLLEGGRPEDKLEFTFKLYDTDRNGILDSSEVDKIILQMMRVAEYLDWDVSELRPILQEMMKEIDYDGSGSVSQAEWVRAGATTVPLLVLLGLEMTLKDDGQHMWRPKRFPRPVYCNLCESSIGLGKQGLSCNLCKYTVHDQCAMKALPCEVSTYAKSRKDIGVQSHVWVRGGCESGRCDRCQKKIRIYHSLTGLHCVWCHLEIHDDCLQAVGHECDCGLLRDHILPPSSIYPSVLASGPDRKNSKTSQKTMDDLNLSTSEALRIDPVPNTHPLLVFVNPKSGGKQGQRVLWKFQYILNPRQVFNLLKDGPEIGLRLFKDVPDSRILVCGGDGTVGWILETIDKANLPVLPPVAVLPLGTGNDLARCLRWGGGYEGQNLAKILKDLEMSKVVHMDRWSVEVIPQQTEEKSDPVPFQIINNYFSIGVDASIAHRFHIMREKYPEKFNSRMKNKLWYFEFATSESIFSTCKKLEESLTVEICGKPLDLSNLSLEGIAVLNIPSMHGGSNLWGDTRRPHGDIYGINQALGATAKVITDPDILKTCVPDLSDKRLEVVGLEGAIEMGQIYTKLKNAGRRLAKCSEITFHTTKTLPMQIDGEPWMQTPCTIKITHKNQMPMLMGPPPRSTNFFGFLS

Row | IC50 (DGKα) [nM] | IC50 (DGKζ) [nM] | SMILES
1 | 10 to 100 | ≥ 1000 | Cn1c(=O)c(C#N)c(N(C)[C@H]2CC[C@@H](N(C(=O)C3CC3)c3ccc(F)cc3)CC2)c2nc(C#N)ccc21 [Example 206, cis-N-(4-((3,6-dicyano-1-methyl-2-oxo-1,2-dihydro-1,5-naphthyridin-4-yl)(methyl)amino)cyclohexyl)-N-(4-fluorophenyl)cyclopropanecarboxamide]
2 | ≥ 1000 | ≥ 1000 | CN1CCN(Cc2ccc(N(CC3CC3)C3CCC(N(C)c4c(C#N)c(=O)n(C)c5ccc(C#N)nc45)CC3)cc2)CC1 (single isomer, unassigned) [Example 199, (cis or trans)-8-((4-((cyclopropylmethyl)(4-((4-methylpiperazin-1-yl)methyl)phenyl)amino)cyclohexyl)(methyl)amino)-5-methyl-6-oxo-5,6-dihydro-1,5-naphthyridine-2,7-dicarbonitrile]
3 | ≥ 1000 | 100 to 1000 | COc1cc(F)ccc1N(C1CC1)[C@H]1CC[C@H](N(C)c2c(C#N)c(=O)n(C)c3ccc(C#N)nc23)CC1 [Example 37, trans-8-((4-(cyclopropyl(4-fluoro-2-methoxyphenyl)amino)cyclohexyl)(methyl)amino)-5-methyl-6-oxo-5,6-dihydro-1,5-naphthyridine-2,7-dicarbonitrile]
4 | 100 to 1000 | 100 to 1000 | Cn1c(=O)cc(N(C)[C@H]2CC[C@@H](N(CC3COCCO3)c3cccc4c3OCO4)CC2)c2nc(C#N)ccc21 (single isomer, unassigned) [Example 195, cis-8-((-4-((((S or R)-1,4-dioxan-2-yl)methyl) (benzo[d][1,3]dioxol-4-yl)amino)cyclohexyl)(methyl)amino)-5-methyl-6-oxo-5,6-dihydro-1,5-naphthyridine-2-carbonitrile]
5 | ≥ 1000 | ≥ 1000 | Cn1c(=O)oc2ccc(N(CC3CC3)[C@H]3CC[C@@H](N(C)c4c(C#N)c(=O)n(C)c5ccc(C#N)nc45)CC3)cc21 [Example 207, cis-8-((-4-((cyclopropylmethyl)(3-methyl-2-oxo-2,3-dihydrobenzo[d]oxazol-5-yl)amino)cyclohexyl) (methyl)amino)-5-methyl-6-oxo-5,6-dihydro-1,5-naphthyridine-2,7-dicarbonitrile]
6 | 100 to 1000 | 100 to 1000 | Cn1c(=O)c(C#N)c(N(C)[C@H]2CC[C@H](N(CC3CC3)c3ccc(F)c(CN4CCOCC4)c3)CC2)c2nc(C#N)ccc21 [Example 174, trans-8-((-4-((cyclopropylmethyl)(4-fluoro-3-(morpholinomethyl)phenyl)amino)cyclohexyl) (methyl)amino)-5-methyl-6-oxo-5,6-dihydro-1,5-naphthyridine-2,7-dicarbonitrile]
7 | 100 to 1000 | ≥ 1000 | Cn1c(=O)cc(N[C@H]2CC[C@@H](N(CC3COC3)c3ccccc3)CC2)c2nc(C#N)ccc21 [Example 3Q, cis-5-Methyl-8-((4-((oxetan-3-ylmethyl)(phenyl)amino)cyclohexyl)amino)-6-oxo-5,6-dihydro-1,5-naphthyridine-2-carbonitrile]
8 | < 10 | 10 to 100 | CC(C)CN(c1ccc(F)cc1)[C@H]1CC[C@@H](N(C)c2c(C#N)c(=O)n(C)c3ccc(C#N)nc23)CC1 [Example 52, cis-8-((-4-((4-fluorophenyl)(isobutyl)amino)cyclohexyl)(methyl)amino)-5-methyl-6-oxo-5,6-dihydro-1,5-naphthyridine-2,7-dicarbonitrile]
9 | 100 to 1000 | 10 to 100 | Cc1cc(F)ccc1N(CC1CCCCO1)[C@H]1CC[C@H](N(C)c2c(C#N)c(=O)n(C)c3ccc(C#N)nc23)CC1 (stereo partly drawn) [Example 136, trans-8-((-4-((4-fluoro-2-methylphenyl)((tetrahydro-2H-pyran-2-yl)methyl)amino)cyclohexyl)(methyl)amino)-5-methyl-6-oxo-5,6-dihydro-1,5-naphthyridine-2,7-dicarbonitrile]
10 | 100 to 1000 | 100 to 1000 | COc1cc(F)ccc1N(CC1CC1)[C@H]1CC[C@@H](N(C)c2c(C#N)c(=O)n(C)c3ccc(C#N)nc23)CC1 [Example 31, cis-8-((4-((cyclopropylmethyl)(4-fluoro-2-methoxyphenyl)amino)cyclohexyl)(methyl)amino)-5-methyl-6-oxo-5,6-dihydro-1,5-naphthyridine-2,7-dicarbonitrile]
11 | 100 to 1000 | ≥ 1000 | Cn1c(=O)c([N+](=O)[O-])c(N2CCC(N(CC3(C)COC3)c3ccccc3)CC2)c2nc(C#N)ccc21 [Example 1D, 5-Methyl-8-(4-(((3-methyloxetan-3-yl)methyl)(phenyl)amino)piperidin-1-yl)-7-nitro-6-oxo-5,6-dihydro-1,5-naphthyridine-2-carbonitrile]
12 | ≥ 1000 | ≥ 1000 | O=C(N[C@H]1CC[C@@H](N(CC2CC2)c2ccccc2)CC1)c1c[nH]c2cccnc12 [Example 4F, cis-N-(4-((Cyclopropylmethyl)(phenyl)amino)cyclohexyl)-1H-pyrrolo[3,2-b]pyridine-3-carboxamide]
13 | 10 to 100 | 10 to 100 | COc1cc(N(C2CC2)[C@H]2CC[C@@H](N(C)c3c(C#N)c(=O)n(C)c4ccc(C#N)nc34)CC2)ccc1F [Example 65]
14 | 10 to 100 | ≥ 1000 | CN(c1c(C#N)c(=O)n(C)c2ccc(Cl)nc12)C1CCC(N(CC2CCC2)c2ccc(CN3CCOCC3)cc2)CC1 (single isomer, unassigned) [Example 191, (cis or trans)-6-chloro-4-((4-((cyclobutylmethyl)(4-(morpholinomethyl)phenyl)amino)cyclohexyl) (methyl)amino)-1-methyl-2-oxo-1,2-dihydro-1,5-naphthyridine-3-carbonitrile]
15 | < 10 | < 10 | Cn1c(=O)c(C#N)c(N(C)[C@H]2CC[C@@H](N(CC3COCCO3)c3ccc4c(c3)OCO4)CC2)c2nc(C#N)ccc21 (stereo partly drawn) [Example 177, cis-8-((4-(((1,4-dioxan-2-yl)methyl)(benzo[d][1,3]dioxol-5-yl)amino)cyclohexyl)(methyl)amino)-5-methyl-6-oxo-5,6-dihydro-1,5-naphthyridine-2,7-dicarbonitrile]
16 | 100 to 1000 | ≥ 1000 | Cn1c(=O)c(C#N)c(N(C)[C@H]2CC[C@@H](N(c3ccc(F)cc3F)C3CC3)CC2)c2nc(Cl)ccc21 [Example 3CC, cis-6-Chloro-4-[[4-(N-cyclopropyl-2,4-difluoro-anilino)cyclohexyl]-methyl-amino]-1-methyl-2-oxo-1,5-naphthyridine-3-carbonitrile]
17 | ≥ 1000 | ≥ 1000 | Cn1c(=O)cc(N(C)[C@H]2CC[C@H](N(CC3CC3)c3cccc(F)c3)CC2)c2nc(C#N)ccc21 [Example 25, trans-8-((4-((cyclopropylmethyl)(3-fluorophenyl)amino)cyclohexyl)(methyl)amino)-5-methyl-6-oxo-5,6-dihydro-1,5-naphthyridine-2-carbonitrile]
18 | 10 to 100 | ≥ 1000 | COc1cc(N(CC2CC2)[C@H]2CC[C@@H](N(C)c3c(C#N)c(=O)n(C)c4ccc(Cl)nc34)CC2)ccc1F [Example 32, cis-6-chloro-4-((4-((cyclopropylmethyl)(4-fluoro-3-methoxyphenyl)amino)cyclohexyl)(methyl)amino)-1-methyl-2-oxo-1,2-dihydro-1,5-naphthyridine-3-carbonitrile]
19 | ≥ 1000 | 100 to 1000 | Cc1cc(F)ccc1N(C[C@@H]1CCOC1)[C@H]1CC[C@H](N(C)c2c(C#N)c(=O)n(C)c3ccc(C#N)nc23)CC1 [Example 166, trans-8-((-4-((4-fluoro-2-methylphenyl)(((S)-tetrahydrofuran-3-yl)methyl)amino)cyclohexyl) (methyl)amino)-5-methyl-6-oxo-5,6-dihydro-1,5-naphthyridine-2,7-dicarbonitrile]
20 | 100 to 1000 | 100 to 1000 | Cn1c(=O)c(C#N)c(N(C)[C@H]2CC[C@@H](N(CC3CCC3)c3ccc(F)cc3C(F)F)CC2)c2nc(C#N)ccc21 [Example 180, cis-8-((-4-((cyclobutylmethyl)(2-(difluoromethyl)-4-fluorophenyl)amino)cyclohexyl)(methyl)amino)-5-methyl-6-oxo-5,6-dihydro-1,5-naphthyridine-2,7-dicarbonitrile]
21 | 10 to 100 | 10 to 100 | Cn1c(=O)c(C#N)c(N(C)[C@H]2CC[C@H](N(CC3CCC3)c3ccc(F)cc3CO)CC2)c2nc(C#N)ccc21 [Example 155, trans-8-((4-((cyclobutylmethyl)(4-fluoro-2-(hydroxymethyl)phenyl)amino)cyclohexyl)(methyl)amino)-5-methyl-6-oxo-5,6-dihydro-1,5-naphthyridine-2,7-dicarbonitrile]
22 | ≥ 1000 | ≥ 1000 | COc1cc(F)ccc1N(CC1CC1)[C@H]1CC[C@H](N(C)c2cc(=O)n(C)c3ccc(C#N)nc23)CC1 [Example 3Y, trans-8-[[4-(N-cyclopropylmethyl-N-4-fluoro-2-methoxyphenyl-anilino)cyclohexyl]-methyl-amino]-5-methyl-6-oxo-5,6-dihydro-1,5-naphthyridine-2-carbonitrile]
23 | ≥ 1000 | ≥ 1000 | CN(c1cc(=O)n(C)c2ccc(C#N)nc12)C1CCC(N(CC2CCC2)c2ccc(CN3CCOCC3)cc2)CC1 (single isomer, unassigned) [Example 189, (cis or trans)-8-((4-((cyclobutylmethyl)(4-(morpholinomethyl)phenyl)amino)cyclohexyl) (methyl)amino)-5-methyl-6-oxo-5,6-dihydro-1,5-naphthyridine-2-carbonitrile]
24 | 100 to 1000 | 100 to 1000 | Cc1cc(F)ccc1N(C[C@H]1CCOC1)[C@H]1CC[C@H](N(C)c2c(C#N)c(=O)n(C)c3ccc(C#N)nc23)CC1 [Example 165, trans-8-((-4-((4-fluoro-2-methylphenyl)(((R)-tetrahydrofuran-3-yl)methyl)amino)cyclohexyl) (methyl)amino)-5-methyl-6-oxo-5,6-dihydro-1,5-naphthyridine-2,7-dicarbonitrile]

— US20230271954A1 (Gossamer Bio Services, Inc., priority 2020, published 2023)
